US12527800B2, “Therapeutic agent for Parkinson's disease” (KYOWA KIRIN CO., LTD., priority 2019, dated 2026)

System: patients of Parkinson's disease experiencing motor fluctuations
Experiment: Pooled analysis of phase 2b and phase 3 clinical studies of istradefylline combined with L-DOPA: change from baseline to week 12 and CGI-I at week 12
Format: in vivo, human
Conditions: for Mean daily OFF time, change from baseline to week 12: 12 weeks; for Mean daily OFF time, change from baseline to week 12 / Mean daily ON time with dyskinesia, change from baseline to week 12 / Mean daily ON time with non-troublesome dyskinesia, change from baseline to week 12 / Mean daily ON time with troublesome dyskinesia, change from baseline to week 12 / Mean daily ON time without dyskinesia, change from baseline to week 12 / Mean daily ON time without troublesome dyskinesia, change from baseline to week 12 / Mean daily percentage of OFF time, change from baseline to week 12 / Mean daily percentage of ON time with dyskinesia, change from baseline to week 12 / Mean daily percentage of ON time with non-troublesome dyskinesia, change from baseline to week 12 / Mean daily percentage of ON time with troublesome dyskinesia, change from baseline to week 12 / Mean daily percentage of ON time without dyskinesia, change from baseline to week 12 / Mean daily percentage of ON time without troublesome dyskinesia, change from baseline to week 12 / Total UPDRS Parts I-III at ON state, change from baseline to week 12 / UPDRS Part I score, change from baseline to week 12 / UPDRS Part II score OFF state, change from baseline to week 12 / UPDRS Part II score ON state, change from baseline to week 12 / UPDRS Part III score at ON state, change from baseline to week 12 / UPDRS Part IV score, change from baseline to week 12: mean ± SD; for CGI-I Minimally improved, % of patients / CGI-I Minimally improved, number of patients / CGI-I Minimally worse, % of patients / CGI-I Minimally worse, number of patients / CGI-I Much improved, % of patients / CGI-I Much improved, number of patients / CGI-I Much worse, % of patients / CGI-I Much worse, number of patients / CGI-I No change, % of patients / CGI-I No change, number of patients / CGI-I Very much improved, % of patients / CGI-I Very much improved, number of patients / CGI-I Very much worse, % of patients / CGI-I Very much worse, number of patients: week 12
Procedure: A pooled analysis was performed for two clinical studies of istradefylline combined with L-DOPA previously conducted in Japan. Both studies were performed according to the principles of the Declaration of Helsinki and were identically designed for 12-week, multicenter, randomized, double-blind, placebo-controlled, and parallel-group studies approved by the relevant institutional review boards of each center [(i) Mizuno Y, Kondo T. Adenosine A2A receptor antagonist istradefylline reduces daily OFF time in Parkinson's disease. Mov Disord 2013; 28: 1138-41, and (ii) Mizuno Y, Hasegawa K, Kondo T, et al. Clinical efficacy of istradefylline (KW-6002) in Parkinson's disease: a randomized, controlled study. Mov Disord 2010; 25(10): 1437-43)]. Both studies were registered in ClinicalTrials.gov (NCT00455507 [phase 2b] and NCT00955526 [phase 3]). Both studies enrolled patients of Parkinson's disease who were experiencing motor fluctuations.
Key inclusion criteria included age 20 years, stages 2-4 (OFF state) based on the Modified Hoehn and Yahr (mH&Y) scale, stable treatment regimen of antiparkinsonian drugs, and motor fluctuations with an OFF time of 2 hours or longer per day. Key exclusion criteria included history of surgical operation for Parkinson's disease, cognitive impairment, and pregnancy. The study protocols were approved by the institutional review boards at all participating study sites, and written informed consent was obtained from all patients prior to participation.
In both studies, eligible subjects were randomized to one of three groups: 12-week istradefylline 20 mg/day group, 12-week istradefylline 40 mg/day group, and 12-week placebo group. The subjects attended site visits at weeks 2, 4, 8, and 12 after randomization, and submitted patient diaries covering the 7-day period prior to each visit. The full analysis set included subjects who received at least one dose of study drug and completed at least one set of patient diaries.
The primary outcomes were changes in OFF time (hours/day) from baseline to 12 weeks obtained from the patient diaries, which were compared between the placebo group and the istradefylline group. Other outcomes included changes (%) in daily OFF time, changes in ON time without troublesome dyskinesia (“Good” ON time) (Hauser RA, Deckers F, Lehert P. Parkinson's disease home diary: further validation and implications for clinical trials. Mov Disord 2004; 19(12): 1409-13), (which was the summation of ON time without dyskinesia and ON time with non-troublesome dyskinesia), UPDRS parts I-IV score, and changes in Clinical Global Impressions-Improvement (CGI-I) score from baseline to 12 weeks. The varying from baseline values, and the treatment effect were determined as a difference in mean change between the placebo group and the istradefylline group during the follow up period.
Baseline data were summarized for all and respective treatment groups (placebo and istradefylline: 20 mg or 40 mg). Continuous variables were expressed as mean and standard deviation (SD), whereas categorical variables were expressed as proportions. The following statistical analyses were performed for patients without any missing data (listwise deletion or complete case analysis).

[1] = 20 mg/day, listed as Istradefylline
[2] = 40 mg/day, listed as Istradefylline

CCn1c(=O)c2c(nc(/C=C/c3ccc(OC)c(OC)c3)n2C)n(CC)c1=O [istradefylline]
Mean daily OFF time, change from baseline to week 12 (20 mg/day, N = 235): significant reductions | Mean daily OFF time, change from baseline to week 12 (20 mg/day, N = 235, listed as Istradefylline): -1.23 ± 1.97 h | Mean daily ON time with dyskinesia, change from baseline to week 12 (20 mg/day): 0.19 ± 1.53 h | Mean daily ON time with non-troublesome dyskinesia, change from baseline to week 12 (20 mg/day): significantly increased | Mean daily ON time with troublesome dyskinesia, change from baseline to week 12 (20 mg/day): 0.03 ± 1.33 h | Mean daily ON time without dyskinesia, change from baseline to week 12 (20 mg/day): significantly increased | Mean daily ON time without troublesome dyskinesia, change from baseline to week 12 (20 mg/day): significantly increased | Mean daily percentage of OFF time, change from baseline to week 12 (20 mg/day): significant reductions | Mean daily percentage of ON time with dyskinesia, change from baseline to week 12 (20 mg/day): 1.32 ± 9.36% | Mean daily percentage of ON time with non-troublesome dyskinesia, change from baseline to week 12 (20 mg/day): significantly increased | Mean daily percentage of ON time with troublesome dyskinesia, change from baseline to week 12 (20 mg/day): 0.15 ± 8.12% | Mean daily percentage of ON time without dyskinesia, change from baseline to week 12 (20 mg/day): significantly increased | Mean daily percentage of ON time without troublesome dyskinesia, change from baseline to week 12 (20 mg/day): significantly increased | Total UPDRS Parts I-III at ON state, change from baseline to week 12 (20 mg/day): significant reductions | UPDRS Part I score, change from baseline to week 12 (20 mg/day): −0.2 ± 0.9 | UPDRS Part II score OFF state, change from baseline to week 12 (20 mg/day): −1.8 ± 4.1 | UPDRS Part II score ON state, change from baseline to week 12 (20 mg/day): −0.5 ± 2.3 | UPDRS Part III score at ON state, change from baseline to week 12 (20 mg/day): significant reductions | UPDRS Part IV score, change from baseline to week 12 (20 mg/day): −0.1 ± 1.6 | Mean daily ON time with non-troublesome dyskinesia, change from baseline to week 12 [1]: 0.16 ± 1.56 h | Mean daily ON time without dyskinesia, change from baseline to week 12 [1]: 1.03 ± 2.20 h | Mean daily ON time without troublesome dyskinesia, change from baseline to week 12 [1]: 1.19 ± 2.44 h | Mean daily percentage of OFF time, change from baseline to week 12 [1]: −7.62 ± 12.62% | Mean daily percentage of ON time with non-troublesome dyskinesia, change from baseline to week 12 [1]: 1.17 ± 9.54% | Mean daily percentage of ON time without dyskinesia, change from baseline to week 12 [1]: 6.28 ± 13.68% | Mean daily percentage of ON time without troublesome dyskinesia, change from baseline to week 12 [1]: 7.45 ± 14.95% | Total UPDRS Parts I-III at ON state, change from baseline to week 12 [1]: −5.8 ± 8.6 | UPDRS Part III score at ON state, change from baseline to week 12 [1]: −5.1 ± 7.2 | CGI-I Minimally improved, % of patients (20 mg/day): (36.2) % | CGI-I Minimally improved, number of patients (20 mg/day): 85 number of patients | CGI-I Minimally worse, % of patients (20 mg/day): (5.1) % | CGI-I Minimally worse, number of patients (20 mg/day): 12 number of patients | CGI-I Much improved, % of patients (20 mg/day): (18.3) % | CGI-I Much improved, number of patients (20 mg/day): 43 number of patients | CGI-I Much worse, % of patients (20 mg/day): (1.3) % | CGI-I Much worse, number of patients (20 mg/day): 3 number of patients | CGI-I No change, % of patients (20 mg/day): (36.2) % | CGI-I No change, number of patients (20 mg/day): 85 number of patients | CGI-I Very much improved, % of patients (20 mg/day): (2.6) % | CGI-I Very much improved, number of patients (20 mg/day): 6 number of patients | CGI-I Very much worse, % of patients (20 mg/day): (0.4) % | CGI-I Very much worse, number of patients (20 mg/day): 1 number of patients | Mean daily OFF time, change from baseline to week 12 (40 mg/day, N = 247): significant reductions | Mean daily OFF time, change from baseline to week 12 (40 mg/day, N = 247, listed as Istradefylline): -1.27 ± 2.42 h | Mean daily ON time with dyskinesia, change from baseline to week 12 (40 mg/day): 0.20 ± 1.93 h | Mean daily ON time with non-troublesome dyskinesia, change from baseline to week 12 (40 mg/day): significantly increased | Mean daily ON time with troublesome dyskinesia, change from baseline to week 12 (40 mg/day): 0.06 ± 1.13 h | Mean daily ON time without dyskinesia, change from baseline to week 12 (40 mg/day): significantly increased | Mean daily ON time without troublesome dyskinesia, change from baseline to week 12 (40 mg/day): significantly increased | Mean daily percentage of OFF time, change from baseline to week 12 (40 mg/day): significant reductions | Mean daily percentage of ON time with dyskinesia, change from baseline to week 12 (40 mg/day): 1.28 ± 11.40% | Mean daily percentage of ON time with non-troublesome dyskinesia, change from baseline to week 12 (40 mg/day): significantly increased | Mean daily percentage of ON time with troublesome dyskinesia, change from baseline to week 12 (40 mg/day): 0.36 ± 6.44% | Mean daily percentage of ON time without dyskinesia, change from baseline to week 12 (40 mg/day): significantly increased | Mean daily percentage of ON time without troublesome dyskinesia, change from baseline to week 12 (40 mg/day): significantly increased | Total UPDRS Parts I-III at ON state, change from baseline to week 12 (40 mg/day): significant reductions | UPDRS Part I score, change from baseline to week 12 (40 mg/day): −0.1 ± 1.0 | UPDRS Part II score OFF state, change from baseline to week 12 (40 mg/day): significant reductions | UPDRS Part II score ON state, change from baseline to week 12 (40 mg/day): −0.7 ± 2.2 | UPDRS Part III score at ON state, change from baseline to week 12 (40 mg/day): significant reductions | UPDRS Part IV score, change from baseline to week 12 (40 mg/day): significant reductions | Mean daily ON time with non-troublesome dyskinesia, change from baseline to week 12 [2]: 0.15 ± 1.36 h | Mean daily ON time without dyskinesia, change from baseline to week 12 [2]: 0.99 ± 2.86 h | Mean daily ON time without troublesome dyskinesia, change from baseline to week 12 [2]: 1.13 ± 2.65 h | Mean daily percentage of OFF time, change from baseline to week 12 [2]: −7.76 ± 15.02% | Mean daily percentage of ON time with non-troublesome dyskinesia, change from baseline to week 12 [2]: 0.92 ± 8.26% | Mean daily percentage of ON time without dyskinesia, change from baseline to week 12 [2]: 6.46 ± 17.10% | Mean daily percentage of ON time without troublesome dyskinesia, change from baseline to week 12 [2]: 7.39 ± 15.73% | Total UPDRS Parts I-III at ON state, change from baseline to week 12 [2]: −6.3 ± 8.1 | UPDRS Part II score OFF state, change from baseline to week 12 [2]: −2.0 ± 3.8 | UPDRS Part III score at ON state, change from baseline to week 12 [2]: −5.5 ± 6.6 | UPDRS Part IV score, change from baseline to week 12 [2]: −0.5 ± 1.6 | CGI-I Minimally improved, % of patients (40 mg/day): (32.5) % | CGI-I Minimally improved, number of patients (40 mg/day): 80 number of patients | CGI-I Minimally worse, % of patients (40 mg/day): (6.5) % | CGI-I Minimally worse, number of patients (40 mg/day): 16 number of patients | CGI-I Much improved, % of patients (40 mg/day): (21.5) % | CGI-I Much improved, number of patients (40 mg/day): 53 number of patients | CGI-I Much worse, % of patients (40 mg/day): (0.8) % | CGI-I Much worse, number of patients (40 mg/day): 2 number of patients | CGI-I No change, % of patients (40 mg/day): (34.1) % | CGI-I No change, number of patients (40 mg/day): 84 number of patients | CGI-I Very much improved, % of patients (40 mg/day): (4.5) % | CGI-I Very much improved, number of patients (40 mg/day): 11 number of patients | CGI-I Very much worse, % of patients (40 mg/day): (0.0) % | CGI-I Very much worse, number of patients (40 mg/day): 0 number of patients
